Tests used:
Assay type in all cases: cell-based
human PBMCs [1] = experiment: IL-1β secretion by human PBMCs (ELISA or Lumit); conditions: two days in culture, R848 1 μg/mL
Protocol: (§1) Isolation of PBMCs from Human and Canine Whole Blood. PBMCs were isolated from whole blood using density gradient centrifugation with Ficoll-Paque PLUS (Cytivia). Whole blood was diluted 1:1 with PBS, layered on top of Ficoll-Paque PLUS and centrifuged at 1000×g for 30 minutes at room temperature. PBMCs were collected, washed twice in PBS, and incubated with Ack lysis buffer (Lonza) to remove any remaining red blood cells.
(§2) Cell Culture and Stimulation. Immediately following isolation, PBMCs were plated in RPMI medium containing 10% FBS, 50 units/mL penicillin, […] streptomycin, 2 mM L-glutamine, 1 mM sodium pyruvate, and […] beta-mercaptoethanol (R10 media). […]
(§3) Endpoint Analyses. […] Half of the media volume in the wells was collected for cytokine quantification by Enzyme-Linked Immunosorbent Assay (ELISA) or Lumit™ Bioluminescent assay, while the remaining media and cells were used to quantify cell viability by assessing metabolic activity.
(§4) Quantification of Cytokine Secretion. IL-1β secretion from human PBMCs was assessed using one of the following kits: ELISA MAX Deluxe Set Human IL-1β kit (Biolegend), Invitrogen Human IL-1β kit, or the Lumit™ Human IL-1β Immunoassay (Promega). IFNγ secretion from human PBMCs was assessed using the ELISA MAX Deluxe Set Human IFNγ (Biolegend) and TNFα secretion from human PBMCs was assessed using the Human TNFα Uncoated ELISA kit (Invitrogen). […]

canine PBMCs = experiment: IL-1β secretion by canine PBMCs (ELISA); conditions: two days in culture, R848 1 μg/mL, 22:0 LYSO PC 82.5 μM, concentration per mL and fold change per donor relative to R848 alone
Protocol: as §1, §2, §3, §4

human PBMCs [2] = experiment: IFNγ secretion by human PBMCs (ELISA); conditions: two days post-hyperactivation
Protocol: as §1, §2, §3, §4

Row | Compound | IL-1β secretion (human PBMCs [1]) | IL-1β secretion (canine PBMCs) | fold change per donor in IFNγ secretion relative to R848 alone (human PBMCs [2])
1 | GM-CSF: human GM-CSF (Peprotech), innate agonist added at 10 ng/mL | did not induce levels of IL-1β secretion from human PBMCs significantly above background levels | neither GM-CSF nor 2′3′cGAMP induced significant IL-1β secretion | neither GM-CSF nor 2′3′cGAMP elicited a substantial fold change
2 | Nc1nc2c(ncn2[C@@H]2O[C@@H]3COP(=O)(O)O[C@H]4[C@@H](O)[C@H](n5cnc6c(N)ncnc65)O[C@@H]4COP(=O)(O)O[C@@H]2[C@@H]3O)c(=O)[nH]1 [2′3′cGAMP, 2′3′ cGAMP, reference compound] |  | neither GM-CSF nor 2′3′cGAMP induced significant IL-1β secretion | neither GM-CSF nor 2′3′cGAMP elicited a substantial fold change
